In one assay the target is T1, human FSH receptor (Homo sapiens, UniProt P23945).
T1 construct: host or cells: CHO-K1 (CHO FSH-R 6CRE-Luc, 1D7 cells)
T1 sequence (P23945 18-695): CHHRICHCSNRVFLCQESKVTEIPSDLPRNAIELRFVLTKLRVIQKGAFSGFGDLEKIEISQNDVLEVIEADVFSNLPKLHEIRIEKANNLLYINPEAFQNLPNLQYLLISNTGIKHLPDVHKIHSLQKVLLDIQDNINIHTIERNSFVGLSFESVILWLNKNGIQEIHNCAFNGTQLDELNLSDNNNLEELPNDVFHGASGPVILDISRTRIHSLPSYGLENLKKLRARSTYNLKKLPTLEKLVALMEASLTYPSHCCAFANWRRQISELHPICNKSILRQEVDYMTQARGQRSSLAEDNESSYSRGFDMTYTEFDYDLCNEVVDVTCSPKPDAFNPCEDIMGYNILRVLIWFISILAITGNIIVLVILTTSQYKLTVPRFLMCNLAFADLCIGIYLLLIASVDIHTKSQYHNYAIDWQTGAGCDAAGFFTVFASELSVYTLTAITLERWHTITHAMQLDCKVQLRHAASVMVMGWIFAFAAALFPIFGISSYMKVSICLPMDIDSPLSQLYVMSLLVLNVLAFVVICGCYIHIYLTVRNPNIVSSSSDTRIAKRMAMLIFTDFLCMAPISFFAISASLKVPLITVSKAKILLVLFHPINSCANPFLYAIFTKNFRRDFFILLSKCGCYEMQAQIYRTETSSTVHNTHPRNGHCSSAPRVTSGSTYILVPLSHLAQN
As to the kind of experiment: FSH receptor-dependent CRE-luciferase reporter gene assay (CHO FSH-R 6CRE-Luc cells). The format is cell-based. As to conditions: dose-response format in presence of EC50 of purified human FSH; * n=3, ** n=2 averages. The source says: FOLLICLE-STIMULATING HORMONE RECEPTOR-DEPENDENT CRE-LUCIFERASE REPORTER GENE ASSAY FOR THE IDENTIFICATION OF FOLLICLE-STIMULATING HORMONE (FSH) ANTAGONISTS
A Chinese hamster ovarian cell line that stably produces the human FSH receptor and a luciferase reporter gene regulated by cAMP response elements was used to identify and determine the relative potencies of human FSH receptor antagonists. See for example, Kelton, C. A., et al. Mol. Cell. Endocrinol. 89:141-151 (1992), Tilly, J. L., et al. Endocrinology 131:799-806(1992), and George, S. E., et al. J. Biomol. Screening 2:235-240 (1997).
Compound Vehicle: Stock compounds were solubilized in an appropriate vehicle, e.g., phosphate buffered saline (PBS) or dimethyl sulfoxide (DMSO), at 30 mM. The compounds subsequently were diluted in DMSO to working dilutions of 1 and 20 or 30 mM for 2-dose testing format and 1 μM-10 mM for dose-response format. The DMSO dilutions were diluted 500-fold in sterile growth medium [D-MEM/F-12 (GIBCO/BRL; Grand Island, N.Y.) containing 15 mM HEPES, 2 mM l-glutamine, pyridoxine hydrochloride, phenol red and 5% FETALCLONE® II (HyClone Laboratories, Inc; Logan, Utah), 0.2% DMSO, 100 units penicillin G/ml, and 100 μg streptomycin sulfate/ml (GIBCO/BRL)]. The concentration of the vehicle in each of the compound dilutions was the same.
Positive Controls: Purified human FSH (>98%) was purchased from Cortex Biochem, Inc. (San Leandro, Calif.) and 3-[(2S*,5R*)-5-{[2-(1H-Indol-3-yl)-ethylcarbamoyl]-methyl}-4-oxo-2-(5-phenylethynyl-thiophen-2-yl)-thiazolidin-3-yl]-benzamide (an FSH-R thiazolidinone antagonist) was prepared by processes described by R. A. Scheuerman et al. in U.S. Pat. No. 6,426,357 (Affymax).
The CHO FSH-R 6CRE-Luc cells (1D7 cells) were obtained from Affymax (Palo Alto, Calif.). These Chinese hamster ovary cells (CHO-K1) were engineered genetically to stably express the recombinant human FSH receptor gene and a luciferase reporter gene under the regulation of 6 copies of a cAMP response element. The cells were plated one day prior to treatment into 96-well white opaque plates at a density of 50,000 cells/100 μl/well in growth medium. On the day of treatment, the growth medium was removed from the wells by aspiration and 50 μl of fresh growth medium was added to each well. The cells were incubated at 37° C. in a humidified incubator with 5% CO2/95% air.
The treated cells were incubated for 4 hours at 37° C. in a humidified incubator with 5% CO2/95% air. At the end of the incubation period, luciferase activity was measured by chemiluminescence using a commercially available kit (LucScreen, Tropix, Inc., Bedford, Mass.) according to the manufacturer's specifications, except that Buffer 1 and Buffer 2 were mixed together in equal proportion prior to the addition of 100 μl of the combined reagents to each well. Chemiluminescence was detected using a luminometer (EG & G Berthold Microlumat LB 96 P, Wallac, Gaithersburg, Md.) with chemiluminescence measured for 1 sec/well. Background luminescence was measured for each well prior to the addition of the LucScreen reagent.
In the 96-well 2-dose format, each compound was tested in duplicate at each dose. […] One plate was used to test a maximum of 22 compounds.
The EC50 of purified human FSH alone was tested in triplicate with each test compound. The doses chosen to test each compound were extrapolated from the initial 2-dose screening process. Along with the test compounds, purified human FSH also was tested in a dose response (0.03, 0.1, 0.3, 1, 3, 10, and 30 ng/ml) for a positive control and quality control. One plate was used for 3 test compounds and the FSH positive control.
Luciferase activity is expressed as relative light units/sec/well. Luciferase activity in antagonist was compared to the appropriate negative and positive controls. For 2-dose testing, results are reported as luciferase activity and are expressed as percent inhibition of the response obtained from the EC50 of FSH.
On the technique in general: In a reporter assay the amount or activity of a reporter protein is the signal.

A further assay has as its target T2, hFSH-R (Homo sapiens, UniProt P23945).
T2 construct: expressed in transfected cells; host or cells: CHO-3D2 cells (CHO-K1 parental line)
T2 sequence (P23945 18-695): T1 sequence (P23945 18-695)
As to the kind of experiment: cAMP accumulation (RIA) in CHO-3D2 cells (hFSH-R), hFSH-induced. The format is cell-based. The note with it: inhibition of cAMP accumulation induced by hFSH at EC20, CHO-3D2 cells. On the procedure: IN VITRO BIO-ASSAY OF AGONISTS AND ANTAGONISTS TO THE FSH RECEPTOR. SELECTIVITY AND DEPENDENCY OF AGONISTS AND ANTAGONISTS TO THE FSH RECEPTOR
Compound Vehicle: Stock compounds were solubilized in 100% DMSO (Sigma-Aldrich Chemical Co., St. Louis, Mo.) at a concentration of 30 mM. The compounds subsequently were diluted in sterile assay medium consisting of Opti-MEM® I (Invitrogen/Life Technologies, Carlsbad, Calif.) with 0.1% (w/v) BSA (Sigma-Aldrich) prior to use in the bio-assay. The final concentration of DMSO in the assay was 0.1%.
Plated cells are then incubated at 37° C. in a humidified 5% CO2/95% air atmosphere.
Assay: On the day of the assay, cells were washed three times with 100 μl/well of assay medium consisting of Opti-MEM® I (Invitrogen/Life Technologies) with 0.1% (w/v) BSA (Sigma-Aldrich). Medium was removed and 100 μl of assay medium was added to each well. Plates were incubated for an additional 30 minutes at 37° C. […] Reactions were terminated by the addition of 50 μl of 0.2N hydrochloric acid to each well and cAMP-accumulation was measured by radioimmunoassay (RIA) using a commercially available kit (Amersham Biosciences, Piscataway, N.J.).
All test compounds were evaluated in a dose-response paradigm ranging from 0.01 to 30 μM. Controls and test compounds were evaluated in quadruplicate in a 96-well format.
Along with the test compounds, FSH was run also as a postive control in the agonist mode using concentrations ranging from 0.1-1000 ng/ml.
Data were analyzed by one-way analysis of variance and significant differences between treatments and control determined by Least Significant Difference test.
Test compounds were compared to the effect of purified human FSH.
A general note: Cyclic AMP is a second messenger, typically raised through Gs and lowered through Gi signalling.

Broadly, the IC50 is the point on the concentration scale where inhibition reaches its midpoint.

With `Cc1cc(C(=O)N2Cc3ccc(C(=O)NCc4cccnc4)n3Cc3ccccc32)ccc1-c1ccccc1C(C)O` (centres unmarked) [Example 50], the 50% inhibitory concentration (IC50) worked out at 1000 nM at human FSH receptor and 300 nM on hFSH-R.

In the case of `CC(C)C(=O)c1ccccc1-c1ccc(C(=O)N2Cc3ccc(C(=O)NCc4cccnc4)n3Cc3ccccc32)cc1` [Example 36], the IC50 turned out to be 1860 nM on human FSH receptor and 430 nM against hFSH-R.

In the case of `O=C(NCc1cccnc1)c1ccc2n1Cc1ccccc1N(C(=O)c1ccc(OC(F)(F)F)cc1)C2` [Example 85], the IC50 on human FSH receptor stood at 6440 nM; against hFSH-R, 1100 nM.

Regarding `CC(O)c1ccccc1-c1ccc(C(=O)N2Cc3ccc(C(=O)NCc4cccnc4)n3Cc3ccccc32)cc1` (single isomer, unassigned; (+)) [Example 54], the half-maximal inhibitory concentration (IC50) at human FSH receptor was determined as 317 nM; on hFSH-R it was 150 nM.

For `CC(O)c1ccccc1-c1ccc(C(=O)N2Cc3ccc(C(=O)NCc4cccnc4)n3Cc3ccccc32)cc1` (single isomer, unassigned; (-)) [Example 53], the IC50 at human FSH receptor was 159 nM; at hFSH-R, 120 nM.

`O=C(NCc1cccnc1)c1ccc2n1Cc1ccccc1N(C(=O)c1ccc(-c3ccccc3)cc1)C2` [Example 13]: the IC50 at human FSH receptor amounted to 2800 nM; against hFSH-R, 700 nM.

Take `CCCc1ccc(C(=O)N2Cc3ccc(C(=O)NCc4cccnc4)n3Cc3ccccc32)cc1` [Example 98]: the figures for the IC50 on human FSH receptor and against hFSH-R were 4960 nM and 400 nM, respectively.

Turning to `CCOc1ccccc1-c1ccc(C(=O)N2Cc3ccc(C(=O)NCc4cccnc4)n3Cc3ccccc32)cc1` [Example 33], the IC50 at human FSH receptor amounted to 1450 nM; against hFSH-R, 900 nM.

Take `CC(C)c1ccccc1-c1ccc(C(=O)N2Cc3ccc(C(=O)NCc4cccnc4)n3Cc3ccccc32)cc1` [Example 31]: the IC50 at human FSH receptor came out at 940 nM; on hFSH-R it was 330 nM.

For `CCNC(=O)Cc1ccccc1-c1ccc(C(=O)N2Cc3ccc(C(=O)NCc4cccnc4)n3Cc3ccccc32)cc1` [Example 66], the IC50 at human FSH receptor stood at 3670 nM; on hFSH-R, 810 nM.

Consider `N#Cc1ccccc1-c1ccc(C(=O)N2Cc3ccc(C(=O)NCc4cccnc4)n3Cc3ccccc32)cc1` [Example 30], for which the IC50 turned out to be 1100 nM on human FSH receptor and 270 nM at hFSH-R.

Turning to `Cc1cc(C(=O)N2Cc3ccc(C(=O)NCc4cccnc4)n3Cc3ccccc32)ccc1-c1ccccc1F` [Example 20], the results for the IC50 at human FSH receptor and on hFSH-R were 3700 nM and 1300 nM, respectively.

On to `CCN(CC)c1ccc(C(=O)N2Cc3ccc(C(=O)NCc4cccnc4)n3Cc3ccccc32)cc1` [Example 102], for which the figures for the IC50 at human FSH receptor and on hFSH-R were 5820 nM and 800 nM, respectively.

For the molecule `CC(C)(C)c1ccc(C(=O)N2Cc3ccc(C(=O)NCc4cccnc4)n3Cc3ccccc32)cc1` [Example 80], the IC50 was determined as 4960 nM at human FSH receptor and 1100 nM at hFSH-R.

With `NC(=O)Cc1ccccc1-c1ccc(C(=O)N2Cc3ccc(C(=O)NCc4cccnc4)n3Cc3ccccc32)cc1` [Example 38], the IC50 at human FSH receptor is 78 nM; on hFSH-R, 90 nM.

`COc1ccc(CNc2ccc(C(=O)N3Cc4ccc(C(=O)NCc5cccnc5)n4Cc4ccccc43)cn2)cc1` [Example 122]: the IC50 is 36500 nM at human FSH receptor and above 30000 nM against hFSH-R.

With `O=C(NCc1cccnc1)c1ccc2n1Cc1ccccc1N(C(=O)c1ccc(NCc3ccccc3)nc1)C2` [Example 119], the IC50 on human FSH receptor came out at 10500 nM; at hFSH-R, 6700 nM.

In the case of `COc1ccccc1-c1ccc(C(=O)N2Cc3ccc(C(=O)NCc4cccnc4Oc4ccccc4)n3Cc3ccccc32)cc1` [Example 7, 10-[(2′-METHOXY-1,1′-BIPHENYL-4-YL)CARBONYL]-N-[(2-PHENOXYPYRIDIN-3-YL)METHYL]-10,11-DIHYDRO-5H-PYRROLO[2,1-C][1,4]BENZODIAZEPINE-3-CARBOXAMIDE], the IC50 on human FSH receptor came to 5400 nM; against hFSH-R, 700 nM.

As to `CSc1ccccc1-c1ccc(C(=O)N2Cc3ccc(C(=O)NCc4cccnc4)n3Cc3ccccc32)cc1` [Example 14, 10-{[2′-(METHYLTHIO)-1,1′-BIPHENYL-4-YL]CARBONYL}-N-(PYRIDIN-3-YLMETHYL)-10,11-DIHYDRO-5H-PYRROLO[2,1-C][1,4]BENZODIAZEPINE-3-CARBOXAMIDE 0.67 HYDRATE], the figures for the IC50 at human FSH receptor and on hFSH-R were 1610 nM and 770 nM, respectively.

For the molecule `Cc1cc(C(=O)N2Cc3ccc(C(=O)NCc4cccnc4)n3Cc3ccccc32)ccc1-c1ccc(Cl)cc1` [Example 24], the concentration for half-maximal inhibition (IC50) is 10700 nM at human FSH receptor and 1600 nM at hFSH-R.

For `CNC(=O)Cc1ccccc1-c1ccc(C(=O)N2Cc3ccc(C(=O)NCc4cccnc4)n3Cc3ccccc32)cc1` [Example 39], the IC50 at human FSH receptor is 414 nM; on hFSH-R, 250 nM.

Consider `CN(C)C(=O)Cc1ccccc1-c1ccc(C(=O)N2Cc3ccc(C(=O)NCc4cccnc4)n3Cc3ccccc32)cc1` [Example 40], for which the IC50 came to 921 nM on human FSH receptor and 320 nM at hFSH-R.
